Measurements published in US20220289724A1, “KIF18A INHIBITORS” (AMGEN INC., priority 2019, published 2022).

Target: T1, Recombinant human KIF18A (1-467 His-tagged) protein (Homo sapiens, UniProt Q8NI77)
T1 construct: Recombinant human KIF18A (1-467 His-tagged) protein; His; made in house
Assay: KIF18A Enzyme Assay: microtubule-stimulated ATPase activity assay (ADP-Glo)
Assay type: biochemical
Conditions: KIF18A protein 30 nM, 30 μg/mL pig microtubules, ATP at Km 75 μM, ADP-Glo luminescence, RT
Description: KIF18A Enzyme Assay: Microtubule-stimulated ATPase activity assay is used to measure KIF18A enzyme activity after treatment with compound. Compounds were 2-fold serially diluted in DMSO (Sigma Inc) over 22-point concentration range. Recombinant human KIF18A (1-467 His-tagged) protein was expressed using a baculovirus system and purified by affinity chromatography by Amgen Inc. Concentrations of KIF18A protein, microtubules (MT), and ATP in the reaction were optimized for standardized homogenous enzyme assay using ADP-Glorm Kinase/ATPase Assay Kit (Promega Inc). The assay measures ADP formed from the ATPase reaction. […] Concentration-response curve-fitting and IC50 determination was performed using Genedata Screener Software (Standard 15.0.1, Genedata Inc) with a four-parameter logistic regression fit model.
Table A provides data for compounds exemplified in the present application and priority document thereof, as representative compounds of the present invention, as follows: chemical name (as named by either ACD software or ChemDraw (Professional 15.0)) and biological data (IC50 in μM). Ex. […] refers to Example No.

T1 sequence (Q8NI77 1-467): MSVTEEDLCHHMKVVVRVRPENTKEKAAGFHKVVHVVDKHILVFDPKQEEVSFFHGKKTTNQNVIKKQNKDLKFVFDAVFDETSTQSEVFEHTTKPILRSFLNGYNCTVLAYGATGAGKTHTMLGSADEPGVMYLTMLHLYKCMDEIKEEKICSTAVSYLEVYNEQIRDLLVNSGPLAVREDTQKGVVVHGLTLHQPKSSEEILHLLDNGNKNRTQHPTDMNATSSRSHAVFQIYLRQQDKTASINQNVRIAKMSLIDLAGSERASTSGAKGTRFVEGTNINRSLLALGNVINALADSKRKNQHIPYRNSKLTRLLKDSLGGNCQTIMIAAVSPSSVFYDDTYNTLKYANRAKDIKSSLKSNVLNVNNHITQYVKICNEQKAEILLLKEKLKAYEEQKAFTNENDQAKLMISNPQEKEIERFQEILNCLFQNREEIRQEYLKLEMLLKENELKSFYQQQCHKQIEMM
T1 sequence (P02550 whole entry partner): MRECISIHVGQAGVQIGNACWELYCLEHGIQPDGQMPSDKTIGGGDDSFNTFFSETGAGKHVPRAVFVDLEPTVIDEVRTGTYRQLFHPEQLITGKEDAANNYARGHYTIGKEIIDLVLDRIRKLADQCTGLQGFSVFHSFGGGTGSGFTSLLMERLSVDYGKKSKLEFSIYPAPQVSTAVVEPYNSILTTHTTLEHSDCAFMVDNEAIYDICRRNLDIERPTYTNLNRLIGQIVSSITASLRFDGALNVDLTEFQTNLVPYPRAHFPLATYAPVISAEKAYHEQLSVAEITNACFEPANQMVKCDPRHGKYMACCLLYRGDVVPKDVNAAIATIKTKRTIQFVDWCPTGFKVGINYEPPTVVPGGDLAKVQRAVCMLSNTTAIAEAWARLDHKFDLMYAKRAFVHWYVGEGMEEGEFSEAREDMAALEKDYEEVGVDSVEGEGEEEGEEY
T1 sequence (P02554 whole entry partner): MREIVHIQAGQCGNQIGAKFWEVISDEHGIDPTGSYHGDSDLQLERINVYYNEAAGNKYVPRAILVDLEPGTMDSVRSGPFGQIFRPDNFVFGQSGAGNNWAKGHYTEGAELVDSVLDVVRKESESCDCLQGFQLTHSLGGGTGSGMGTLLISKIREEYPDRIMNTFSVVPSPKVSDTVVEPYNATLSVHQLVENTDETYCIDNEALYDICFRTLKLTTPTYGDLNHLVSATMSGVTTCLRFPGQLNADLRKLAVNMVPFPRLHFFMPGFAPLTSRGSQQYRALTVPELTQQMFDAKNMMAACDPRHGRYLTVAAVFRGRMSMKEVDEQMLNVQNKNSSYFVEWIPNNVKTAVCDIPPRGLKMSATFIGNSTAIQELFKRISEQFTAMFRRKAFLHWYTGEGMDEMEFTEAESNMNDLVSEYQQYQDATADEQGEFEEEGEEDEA

| SMILES | IC50 |
| --- | --- |
| CC(C)(C)NS(=O)(=O)c1cccc(NC(=O)c2ccc(S(=O)(=O)C3(C)COC3)cc2N2CCC3(CC2)CC3)c1 [Example 100, N-(3-(N-(tert-Butyl)sulfamoyl)phenyl)-4-((3-methyloxetan-3-yl)sulfonyl)-2-(6-azaspiro[2.5]octan-6-yl)benzamide] | 173 nM |
| CC(C)(C)NS(=O)(=O)c1cccc(NC(=O)c2ccc(S(C)(=O)=O)cc2N2CCC3(CC2)CC3)c1 [Example 100-1, N-(3-(N-(tert-butyl)sulfamoyl)phenyl)-4-(methylsulfonyl)-2-(6-azaspiro[2.5]octan-6-yl)benzamide] | 61 nM |
| CC(C)c1cccc(NC(=O)c2ccc(S(C)(=O)=O)cc2N2CCC3(CC2)CC3)c1 [Example 100-2, N-(3-isopropylphenyl)-4-(methylsulfonyl)-2-(6-azaspiro[2.5]octan-6-yl)benzamide] | 94 nM |
| CS(=O)(=O)c1ccc(C(=O)Nc2cccc(C3CC3)c2)c(N2CCC3(CC2)CC3)c1 [Example 100-3, N-(3-cyclopropylphenyl)-4-(methylsulfonyl)-2-(6-azaspiro[2.5]octan-6-yl)benzamide] | 187 nM |
| CC(C)(C)c1cccc(NC(=O)c2ccc(S(C)(=O)=O)cc2N2CCC3(CC2)CC3)c1 [Example 100-4, N-(3-(tert-butyl)phenyl)-4-(methylsulfonyl)-2-(6-azaspiro[2.5]octan-6-yl)benzamide] | 362 nM |
| CS(=O)(=O)c1ccc(C(=O)Nc2cccc3cccnc23)c(N2CCC3(CC2)CC3)c1 [Example 100-5, 4-(methylsulfonyl)-N-(quinolin-8-yl)-2-(6-azaspiro[2.5]octan-6-yl)benzamide] | 246 nM |
| Cc1ccnc2c(NC(=O)c3ccc(S(C)(=O)=O)cc3N3CCC4(CC3)CC4)cccc12 [Example 100-6, N-(4-methylquinolin-8-yl)-4-(methylsulfonyl)-2-(6-azaspiro[2.5]octan-6-yl)benzamide] | 61 nM |
| CS(=O)(=O)c1ccc(C(=O)Nc2cccc3c2OCCC3)c(N2CCC3(CC2)CC3)c1 [Example 100-7, N-(chroman-8-yl)-4-(methylsulfonyl)-2-(6-azaspiro[2.5]octan-6-yl)benzamide] | 45 nM |
| CS(=O)(=O)c1ccc(C(=O)Nc2cccc3ccoc23)c(N2CCC3(CC2)CC3)c1 [Example 100-8, N-(benzofuran-7-yl)-4-(methylsulfonyl)-2-(6-azaspiro[2.5]octan-6-yl)benzamide] | 200 nM |
| CS(=O)(=O)c1ccc(C(=O)Nc2cccc3ccsc23)c(N2CCC3(CC2)CC3)c1 [Example 100-9, N-(benzo[b]thiophen-7-yl)-4-(methylsulfonyl)-2-(6-azaspiro[2.5]octan-6-yl)benzamide] | 630 nM |
| CS(=O)(=O)c1ccc(C(=O)Nc2cccc(N3CCOCC3)c2)c(N2CCC3(CC2)CC3)c1 [Example 100-10, 4-(methylsulfonyl)-N-(3-morpholinophenyl)-2-(6-azaspiro[2.5]octan-6-yl)benzamide] | 862 nM |
| CC(C)(C)NS(=O)(=O)c1cccc(NC(=O)c2ccc(CS(C)(=O)=O)cc2N2CCC3(CC2)CC3)c1 [Example 100-11, N-(3-(N-(tert-butyl)sulfamoyl)phenyl)-4-((methylsulfonyl)methyl)-2-(6-azaspiro[2.5]octan-6-yl)benzamide] | 51 nM |
| CC(C)(C)NS(=O)(=O)c1cccc(NC(=O)c2ccc(CS(=O)(=O)CCO)cc2N2CCC3(CC2)CC3)c1 [Example 100-12, N-(3-(N-(tert-butyl)sulfamoyl)phenyl)-4-(((2-hydroxyethyl)sulfonyl)methyl)-2-(6-azaspiro[2.5]octan-6-yl)benzamide] | 75 nM |
| CC(C)(C)NS(=O)(=O)c1cccc(NC(=O)c2ccc(S(=O)(=O)NC(C)(C)C)cc2N2CCC3(CC2)CC3)c1 [Example 100-13, 4-(N-(tert-butyl)sulfamoyl)-N-(3-(N-(tert-butyl)sulfamoyl)phenyl)-2-(6-azaspiro[2.5]octan-6-yl)benzamide] | 76 nM |
| CC(C)(C)NS(=O)(=O)c1cccc(NC(=O)c2ccc(C3(C)COC3)cc2N2CCC3(CC2)CC3)c1 [Example 100-14, N-(3-(N-(tert-butyl)sulfamoyl)phenyl)-4-(3-methyloxetan-3-yl)-2-(6-azaspiro[2.5]octan-6-yl)benzamide] | 130 nM |
| CC(C)(C)NS(=O)(=O)c1cccc(NC(=O)c2ccc(C3(O)COC3)cc2N2CCC3(CC2)CC3)c1 [Example 100-15, N-(3-(N-(tert-butyl)sulfamoyl)phenyl)-4-(3-hydroxyoxetan-3-yl)-2-(6-azaspiro[2.5]octan-6-yl)benzamide] | 88 nM |
| CC(C)(C)NS(=O)(=O)c1cccc(NC(=O)c2ccc(NS(=O)(=O)C3(C)CC3)cc2N2CCC3(CC2)CC3)c1 [Example 102, N-(3-(N-(tert-Butyl)sulfamoyl)phenyl)-4-((1-methylcyclopropane)-1-sulfonamido)-2-(6-azaspiro[2.5]octan-6-yl)benzamide] | 61 nM |

Results, then the molecule that gave them:

| IC50 | SMILES |
| --- | --- |
| 42 nM | C[C@@H](CO)S(=O)(=O)Nc1ccc(C(=O)Nc2cccc(S(=O)(=O)NC(C)(C)C)c2)c(N2CCC3(CC2)CC3)c1 (single isomer, unassigned) [Example 105-1] |
| 57 nM | C[C@H](CO)S(=O)(=O)Nc1ccc(C(=O)Nc2cccc(S(=O)(=O)NC(C)(C)C)c2)c(N2CCC3(CC2)CC3)c1 (single isomer, unassigned) [Example 105-2] |
| 92 nM | CC(C)(C)NS(=O)(=O)c1cccc(NC(=O)c2ccc([C@@](C)(O)CO)cc2N2CCC3(CC2)CC3)c1 (single isomer, unassigned) [Example 108-1] |
| 141 nM | CC(C)(C)NS(=O)(=O)c1cccc(NC(=O)c2ccc([C@](C)(O)CO)cc2N2CCC3(CC2)CC3)c1 (single isomer, unassigned) [Example 108-2] |
| 142 nM | N=[S@](=O)(c1cccc(NC(=O)c2ccc(NS(=O)(=O)CCO)cc2N2CCC3(CC2)CC3)c1)N1CCC1 (single isomer, unassigned) [Example 112-1] |
| 160 nM | N=[S@@](=O)(c1cccc(NC(=O)c2ccc(NS(=O)(=O)CCO)cc2N2CCC3(CC2)CC3)c1)N1CCC1 (single isomer, unassigned) [Example 112-2] |
| 66 nM | CC(C)(CO)Nc1cccc(NC(=O)c2ccc(S(=O)(=O)NC3(C)COC3)cc2N2CCC3(CC2)CC3)c1F [Example 101-1, N-(2-fluoro-3-((1-hydroxy-2-methylpropan-2-yl)amino)phenyl)-4-(N-(3-methyloxetan-3-yl)sulfamoyl)-2-(6-azaspiro[2.5]octan-6-yl)benzamide] |
| 298 nM | CC(C)(CO)Nc1cccc(NC(=O)c2ccc(NS(=O)(=O)C3(C)CC3)cc2N2CCC3(CC2)CC3)c1F [Example 101-2, N-(2-fluoro-3-((1-hydroxy-2-methylpropan-2-yl)amino)phenyl)-4-((1-methylcyclopropane)-1-sulfonamido)-2-(6-azaspiro[2.5]octan-6-yl)benzamide] |
| 115 nM | CC(C)(CO)Nc1cccc(NC(=O)c2ccc(NS(=O)(=O)C3(C)CC3)cc2N2CCC3(CC2)CC3)c1 [Example 101-3, N-(3-((1-hydroxy-2-methylpropan-2-yl)amino)phenyl)-4-((1-methylcyclopropane)-1-sulfonamido)-2-(6-azaspiro[2.5]octan-6-yl)benzamide] |
| 27 nM | CC(C)(C)NS(=O)(=O)c1cccc(NC(=O)c2ccc(NS(C)(=O)=O)cc2N2CCC3(CC2)CC3)c1 [Example 102-1, N-(3-(N-(tert-butyl)sulfamoyl)phenyl)-4-(methylsulfonamido)-2-(6-azaspiro[2.5]octan-6-yl)benzamide] |
| 34 nM | CCS(=O)(=O)Nc1ccc(C(=O)Nc2cccc(S(=O)(=O)NC(C)(C)C)c2)c(N2CCC3(CC2)CC3)c1 [Example 102-2, N-(3-(N-(tert-butyl)sulfamoyl)phenyl)-4-(ethylsulfonamido)-2-(6-azaspiro[2.5]octan-6-yl)benzamide] |
| 26 nM | CC(C)S(=O)(=O)Nc1ccc(C(=O)Nc2cccc(S(=O)(=O)NC(C)(C)C)c2)c(N2CCC3(CC2)CC3)c1 [Example 102-3, N-(3-(N-(tert-butyl)sulfamoyl)phenyl)-4-((1-methylethyl)sulfonamido)-2-(6-azaspiro[2.5]octan-6-yl)benzamide] |
| 30 nM | CC(C)(C)NS(=O)(=O)c1cccc(NC(=O)c2ccc(NS(=O)(=O)C3CC3)cc2N2CCC3(CC2)CC3)c1 [Example 102-4, N-(3-(N-(tert-butyl)sulfamoyl)phenyl)-4-(cyclopropanesulfonamido)-2-(6-azaspiro[2.5]octan-6-yl)benzamide] |
| 63 nM | CC(C)(C)NS(=O)(=O)c1cccc(NC(=O)c2ccc(NS(=O)(=O)C(C)(C)C)cc2N2CCC3(CC2)CC3)c1 [Example 102-5, N-(3-(N-(tert-butyl)sulfamoyl)phenyl)-4-((1,1-dimethylethyl)sulfonamido)-2-(6-azaspiro[2.5]octan-6-yl)benzamide] |
| 45 nM | CC(C)(C)NS(=O)(=O)c1cccc(NC(=O)c2ccc(N3CCCS3(=O)=O)cc2N2CCC3(CC2)CC3)c1 [Example 102-6, N-(3-(N-(tert-butyl)sulfamoyl)phenyl)-4-(1,1-dioxidoisothiazolidin-2-yl)-2-(6-azaspiro[2.5]octan-6-yl)benzamide] |
| 71 nM | C[C@@H]1CN(c2cccc(NC(=O)c3ccc(NS(=O)(=O)CCO)cc3N3CCC4(CC3)CC4)c2)CCO1 [Example 103-1, (R)-4-((2-hydroxyethyl)sulfonamido)-N-(3-(2-methylmorpholino)phenyl)-2-(6-azaspiro[2.5]octan-6-yl)benzamide] |
